{
  "source": "patent US20250019372A1",
  "about": "“CRYSTALLINE FORMS OF A RIPK1 INHIBITOR” (RIGEL PHARMACEUTICALS, INC., priority 2021, published 2025)",
  "assay": "Relative thermodynamic stability of the crystalline forms",
  "assay_type": "physicochemical",
  "conditions": "compared to the other identified Forms A, B, and C; temperature range of RT to 50° C.",
  "data": [
    {"compound": "CN1C(=O)[C@@H](NC(=O)c2n[nH]c(Cc3ccccc3)n2)COc2ccc(C#CC(C)(C)O)cc21", "note": "[Form D, (S)-5-benzyl-N-(7-(3-hydroxy-3-methylbut-1-yn-1-yl)-5-methyl-4-oxo-2,3,4,5-tetrahydrobenzo[b][1,4]oxazepin-3-yl)-1H-1,2,4-triazole-3-carboxamide]", "values": [
      {"measurement": "thermodynamic stability of the crystalline form", "value": "most thermodynamically stable crystalline form"}
    ]}
  ]
}
